Source: patent US20090005424A9, “Composition and Method for Treating Fibrotic Diseases” (priority 2005, published 2009)

What was measured:
[1] = Acute oral toxicity in Kun Ming mice, LD50 by Bliss method; conditions: both sexes, Kun Ming (KM), mouse, in vivo, po
Method: Male and female Kun Ming (KM) mice weighing between 18 g-22 g were acquired from the animal facility of Hsiang-Ya Medical College, the Central South University. Fifty Kun Ming mice were randomly assigned into 5 groups with 5 male and 5 female mice for each group. The animals went through fasting with a normal water supply before starting drug treatment (either AKF-PD or PIRFENIDONE). The drug was administrated orally by gavage. The volume of liquid drug was 20 ml/kg body weight. The range of dosage for AKF-PD administrated was from 1071 mg/kg to 6000 mg/kg. The dosage difference between two adjacent doses was 1:0.65 (a dose vs the next lower dose). All animals were maintained under a regular condition. Acute toxic reaction and death within 14 days of post drug treatment were recorded. Autopsy was performed on all dead animals and visual examination was performed on all organs.
LD50 was calculated according to Bliss method. […] The results of Table 15 are very close to those reported in the literature: 997.7 mg/kg (U.S. Pat. No. 5,310,562) and 1112 mg/kg(Pharmaceutical Care and Research 5:4823(2005)).

[2] = tested on: SD rat, renal interstitial fibrosis induced by surgical ligation of single side ureter; assay: Rat ureter ligation model of renal interstitial fibrosis, AKF-PD vs PFD (Example 12); format: in vivo; conditions: ureter-ligated rats; PFD 500 mg/kg/d, AKF-PD 500 mg/kg/d by gavage; 14 days post surgery
Method: Anti-fibrotic effect of AKF-PD was tested on a SD rat model for renal interstitial fibrosis induced by surgical ligation of single side ureter. Male SD rats (180 g˜220 g) were randomly divided into disease model group, PFD (500 mg/kg/d) group and AKF-PD (500 mg/kg/d) group. […] The respective drugs were administrated by gavage to rats in the groups of PFD and AKF-PD from one day prior to the procedure to 14 days post surgical procedure. Normal saline was administrated in a similar fashion to the rats in the groups of disease model. The animals were sacrificed 14 days after surgical procedure and their kidney were removed for pathological (HE staining) examination.

Kidney Fibroblast = assay: MTT proliferation assay, mouse kidney fibroblast; format: cell-based
Method: (§1) Cell proliferation was measured by MTT assay. DMEM with 10% fetal serum was used as cell culture medium. The cells were prepared in suspension (1×10^5/ml), and 100 μL of the suspension was transferred to each well of a 96 wells plate. Once the cells were attached to the plastic, the culture was changed to serum free medium and continued for another 24 hours. The serum free medium was aspirated, and various concentrations of 1-(3′-fluorophenyl)-5-methyl-2(1H)-pyridone (AKF-PD) 1-(3′-bromophenyl)-5-methyl-2(1H)-pyridone (AKF-BR) or PIRFENIDONE (PFD) in 10% serum medium were added into each well with 5 replicates for each concentration. The cells were stained with MTT (10 μL per well) at 24, 48, and 72 hours post drug treatment. After 4 hrs of incubation, the medium with MTT was aspirated from each well. One hundred μL MTT solvent was added to each well for 15 min. The dissolved MTT was then measured with a plate reader at 570 nm.

[3] = tested on: Human Peritoneal Mesothelial Cells; assay: MTT proliferation assay, human peritoneal mesothelial cells; format: cell-based
Method: (§2) In the following examples, myocardiac fibroblasts, skin scar forming fibroblast and human peritoneal mesothelial cells are primary cultures prepared according to common procedure. Other cells are commercially purchased. 1-(3-fluorophenyl)-5-methyl-2(1H)-pyridone (AKF-PD) is prepared as a suspension in 5% carboxymethylcellulose.
as §1, with “and incubated” for “and continued”, “hours. Then, the” for “hours. The”, “(AKF-PD)” for “(AKF-PD) 1-(3′-bromophenyl)-5-methyl-2(1H)-pyridone (AKF-BR)”, “at 12, […], or 48” for “at 24, 48, and 72”, “15 min, and the” for “15 min. The”, “was” for “was then”

[4] = tested on: Human Skin Scar Forming Fibroblasts; assay: MTT proliferation assay, human skin scar forming fibroblasts; format: cell-based
Method: as §2
(§3) Cell proliferation was measured by MTT assay. DMEM with 10% fetal serum was used as cell culture medium. The cells were prepared in suspension (1×10^5/ml), and 100 μL of the suspension was transferred to each well of a 96 wells plate. Once the cells were attached to the plastic, the culture was changed to serum free medium and incubated for another 24 hours. Then, the serum free medium was aspirated, and various concentrations of 1-(3′-fluorophenyl)-5-methyl-2(1H)-pyridone (AKF-PD) or PIRFENIDONE (PFD) in 10% serum medium were added into each well with 5 replicates for each concentration. The cells were stained with MTT (10 μL per well) at 12, 24, or 48 hours post drug treatment. After 4 hrs of incubation, the medium with MTT was aspirated from each well. One hundred μL MTT solvent was added to each well for 15 min, and the dissolved MTT was measured with a plate reader at 570 nm.

[5] = tested on: Rat Myocardiac Fibroblasts; assay: MTT proliferation assay, rat myocardiac fibroblasts; format: cell-based
Method: as §2, §3

## Cc1ccc(=O)n(-c2cccc(F)c2)c1 [AKF-PD, 1-(3′-fluorophenyl)-5-methyl-2(1H)-pyridone]
[1]; LD50
  LD50 at 14 days: 2980 mg/kg
[1]; LD50 95% confidence limit
  LD50 at 14 days: 2400 to 3700 mg/kg
[2]
  Histological Score for Interstitial Compartment: 7.11 ± 1.38
Kidney Fibroblast
  inhibition of proliferation of kidney fibroblast: capable of inhibiting the proliferation of kidney fibroblast
Kidney Fibroblast; 100 μg/ml, 24 h
  Optical Density at 570 nm: 0.5907 ± 0.0199
Kidney Fibroblast; 100 μg/ml, 48 h
  Optical Density at 570 nm: 0.5850 ± 0.0134
Kidney Fibroblast; 100 μg/ml, 72 h
  Optical Density at 570 nm: 0.5080 ± 0.0145
Kidney Fibroblast; 500 μg/ml, 24 h
  Optical Density at 570 nm: 0.5799 ± 0.1086
Kidney Fibroblast; 500 μg/ml, 48 h
  Optical Density at 570 nm: 0.5185 ± 0.0331
Kidney Fibroblast; 500 μg/ml, 72 h
  Optical Density at 570 nm: 0.4314 ± 0.0264
Kidney Fibroblast; 1000 μg/ml, 24 h
  Optical Density at 570 nm: 0.5638 ± 0.0142
Kidney Fibroblast; 1000 μg/ml, 48 h
  Optical Density at 570 nm: 0.4298 ± 0.0258
Kidney Fibroblast; 1000 μg/ml, 72 h
  Optical Density at 570 nm: 0.3511 ± 0.0215
Kidney Fibroblast; kidney fibroblast
  order of inhibitory effect: AKF-PD>AKF-BR>pirfenidone
[3]; 100 μg/ml, 12 h
  Optical Density at 570 nm: 0.344 ± 0.004
[3]; 100 μg/ml, 24 h
  Optical Density at 570 nm: 0.583 ± 0.004
[3]; 100 μg/ml, 48 h
  Optical Density at 570 nm: 0.807 ± 0.007
[3]; 500 μg/ml, 12 h
  Optical Density at 570 nm: 0.344 ± 0.005
[3]; 500 μg/ml, 24 h
  Optical Density at 570 nm: 0.573 ± 0.004
[3]; 500 μg/ml, 48 h
  Optical Density at 570 nm: 0.758 ± 0.010
[3]; 1000 μg/ml, 12 h
  Optical Density at 570 nm: 0.343 ± 0.004
[3]; 1000 μg/ml, 24 h
  Optical Density at 570 nm: 0.553 ± 0.004
[3]; 1000 μg/ml, 48 h
  Optical Density at 570 nm: 0.704 ± 0.003
[3]; 2500 μg/ml, 12 h
  Optical Density at 570 nm: 0.346 ± 0.005
[3]; 2500 μg/ml, 24 h
  Optical Density at 570 nm: 0.502 ± 0.003
[3]; 2500 μg/ml, 48 h
  Optical Density at 570 nm: 0.646 ± 0.006
[3]; human peritoneal mesothelial cells
  anti-proliferative potency compared with PIRFENIDONE: more potent anti-proliferative agent than PIRFENIDONE
[4]; 100 μg/ml, 12 h
  Optical Density at 570 nm: 0.192 ± 0.010
[4]; 100 μg/ml, 24 h
  Optical Density at 570 nm: 0.245 ± 0.002
[4]; 100 μg/ml, 48 h
  Optical Density at 570 nm: 0.366 ± 0.006
[4]; 500 μg/ml, 12 h
  Optical Density at 570 nm: 0.192 ± 0.006
[4]; 500 μg/ml, 24 h
  Optical Density at 570 nm: 0.238 ± 0.004
[4]; 500 μg/ml, 48 h
  Optical Density at 570 nm: 0.345 ± 0.007
[4]; 1000 μg/ml, 12 h
  Optical Density at 570 nm: 0.192 ± 0.009
[4]; 1000 μg/ml, 24 h
  Optical Density at 570 nm: 0.221 ± 0.004
[4]; 1000 μg/ml, 48 h
  Optical Density at 570 nm: 0.323 ± 0.009
[4]; 2500 μg/ml, 12 h
  Optical Density at 570 nm: 0.190 ± 0.002
[4]; 2500 μg/ml, 24 h
  Optical Density at 570 nm: 0.198 ± 0.008
[4]; 2500 μg/ml, 48 h
  Optical Density at 570 nm: 0.267 ± 0.001
[4]; human skin fibroblasts
  anti-proliferative potency compared with PIRFENIDONE: more potent anti-proliferative agent than PIRFENIDONE
[5]; 100 μg/ml, 12 h
  Optical Density at 570 nm: 0.328 ± 0.010
[5]; 100 μg/ml, 24 h
  Optical Density at 570 nm: 0.426 ± 0.006
[5]; 100 μg/ml, 48 h
  Optical Density at 570 nm: 0.620 ± 0.018
[5]; 500 μg/ml, 12 h
  Optical Density at 570 nm: 0.326 ± 0.003
[5]; 500 μg/ml, 24 h
  Optical Density at 570 nm: 0.408 ± 0.009
[5]; 500 μg/ml, 48 h
  Optical Density at 570 nm: 0.580 ± 0.014
[5]; 1000 μg/ml, 12 h
  Optical Density at 570 nm: 0.332 ± 0.006
[5]; 1000 μg/ml, 24 h
  Optical Density at 570 nm: 0.392 ± 0.008
[5]; 1000 μg/ml, 48 h
  Optical Density at 570 nm: 0.538 ± 0.009
[5]; 2500 μg/ml, 12 h
  Optical Density at 570 nm: 0.325 ± 0.008
[5]; 2500 μg/ml, 24 h
  Optical Density at 570 nm: 0.377 ± 0.013
[5]; 2500 μg/ml, 48 h
  Optical Density at 570 nm: 0.514 ± 0.005
[5]; rat myocardiac fibroblasts
  anti-proliferative potency compared with PIRFENIDONE: more potent anti-proliferative agent than PIRFENIDONE
